Measured values as given in paper PMC8151276, “An Integrated Approach toward NanoBRET Tracers for Analysis of GPCR Ligand Engagement” (Molecules, 2021).

Target: T1, OPRL1 (Homo sapiens, UniProt P41146)
T1 construct: purchased Promega (in-house HiBiT-GPCR construct library, NanoBRET)
Assay: NanoBRET screen HiBiT-OPRL1 in HEK293
Format: binding
Protocol: Each tracer candidate was screened across the entire library of HiBiT-GPCR constructs using NanoBRET as the detection modality. As depicted in Figure 4A, the specificity of interactions was evaluated through decrease in BRET due to competitive displacement of a bound tracer by excess parental compound. Each tracer was analyzed for binding to each HiBiT-GPCR fusion in the absence and in the presence of competing parental compound. Briefly, HEK293 cells were transfected with HiBiT-GPCR constructs diluted into promoterless DNA to reduce expression and maximize translocation to the cell surface. Each tracer candidate was then screened at concentrations of 1 μM and 0.1 μM across cells expressing these fusions. Cells were treated for 1.5 h with tracer either alone or in the presence of 20 μM competing parental compound (i.e., control). BRET was measured upon addition of purified LgBiT and subsequent complementation with HiBiT genetically fused to a GPCR. The specificity of interactions was assessed through a decrease in BRET signal due to competitive displacement of the bound tracer. To further gauge the robustness of these interactions, the fold response over the control (i.e., BRETtracer/BRETcontrol) was calculated. We chose a 1.5-fold response, which translates to ≥7-fold signal over noise as the minimal threshold required to score an interaction as positive. […]. Below we highlight the screening results obtained for our exemplary fluorescent tracers based on Clozapine, Amitriptyline and AZD1283.
HiBiT-GPCR DNA constructs were diluted in 10 mM Tris pH 8 to a final concentration of 0.01 μg/μL, arrayed in 96-well plates and stored at −20 °C. For transfection, HEK293 cells were suspended in Opti-MEM (without phenol red) supplemented with 2% fetal bovine serum (Seradigm) and 100 units/mL penicillin–streptomycin (Gibco) at a final concentration of 220,000 cells/mL and dispensed into white 96-well plates at 90 μL/well. Subsequent transfections and screens were carried using an Agilent Bravo Automated Liquid Handling Platform. First, the 96-well HiBiT DNA arrays were diluted 25-fold in Opti-MEM (without serum or phenol red) to a final concentration of 0.0004 μg/μL and 20 μL of the diluted DNAs were transferred into new 96-well plates. Next, promoterless carrier DNA (1 μg/μL) was diluted 25-fold (0.04 μg/μL) and then dispensed into the diluted arrays at 20 μL/well. Following brief mixing, Viafect transfection reagent (Promega) diluted 16-fold into Opti-MEM was dispensed into the plates at 40 μL/well. After mixing by pipetting, plates were incubated for 10 min on the pipetting station deck. The DNA-transfection reagent complexes were then added to plates containing cells. To facilitate the screen, 10 μL of DNA-transfection reagent complexes were added in duplicates to the top 4 and bottom 4 rows, resulting in two identical 48-well arrays per plate. Plates with transfected cells were incubated for 18–20 h at 37 °C/5% CO2. A screen of each tracer across the entire library using two different concentrations requires duplicate plates of transfected cells. Depending on the number of tracers being screened, transfections can be scaled up using the same ratios. The next day, for each tracer, four 20× screening solutions in tracer dilution buffer (Promega) were prepared: two duplicates at final concentration of 20 μM and two duplicates at a final concentration of 2 μM. A competing unmodified compound was added to one of each duplicate at a final concentration of 400 μM. The four resulting solutions were diluted 4-fold in Opti-MEM without serum or phenol red to generate 5× solutions (5 µM and 0.5 µM tracer +/− 100 μM competing compound). To screen the library, a BioTek MultiFlo FX liquid dispenser was used to dispense 22.5 µL of tracer solution to the top 4 rows and 22.5 µL tracer + competing compound solution to the 4 bottom rows. Plates were briefly mixed on an orbital shaker and incubated for 1.5 h at room temperature. […]

T1 sequence (P41146 whole entry): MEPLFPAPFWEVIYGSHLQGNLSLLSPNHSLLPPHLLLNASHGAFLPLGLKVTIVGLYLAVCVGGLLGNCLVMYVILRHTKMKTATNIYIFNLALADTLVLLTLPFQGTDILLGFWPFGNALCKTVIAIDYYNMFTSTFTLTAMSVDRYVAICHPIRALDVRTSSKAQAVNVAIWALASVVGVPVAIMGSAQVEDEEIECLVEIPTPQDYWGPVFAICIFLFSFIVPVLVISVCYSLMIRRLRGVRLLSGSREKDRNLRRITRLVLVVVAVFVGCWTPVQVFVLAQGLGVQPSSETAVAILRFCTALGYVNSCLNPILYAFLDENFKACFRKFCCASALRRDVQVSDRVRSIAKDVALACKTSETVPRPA

Structure (SMILES)	NanoBRET Fold Response (OPRL1, tracer 0.1μM)	NanoBRET Fold Response (OPRL1, tracer 1μM)	other results
O=C(CCc1ccc2n1[B-](F)(F)[N+]1=C(c3ccc[nH]3)C=CC1=C2)NCc1ccc(C(=O)NCCOCCC(=O)N[C@@H]2CC[C@@]3(O)[C@H]4Cc5ccc(O)c6c5[C@@]3(CCN4CC3CC3)[C@H]2O6)cc1 [Naltrexone-3-NB590]	1.54	0.99	–
CCCn1c(=O)c2[nH]c(-c3ccc(OCC(=O)NCCNC(=O)CCOCCNC(=O)c4ccc(CNC(=O)CCc5ccc6n5[B-](F)(F)[N+]5=C(c7ccc[nH]7)C=CC5=C6)cc4)cc3)nc2n(CCC)c1=O [XAC-3-NB590]	1.12	0.72	–
CC(C)N(CC[C@H](c1ccccc1)c1cc(CCNC(=O)c2ccc(CNC(=O)CCc3ccc4n3[B-](F)(F)[N+]3=C(c5ccc[nH]5)C=CC3=C4)cc2)ccc1O)C(C)C [Tolterodine-BZ-NB590]	0.92	0.88	–
COc1ccc2[nH]c(-c3ccc(CNC(=O)CCOCCOCCOCCOCCNC(=O)CCc4ccc5n4[B-](F)(F)[N+]4=C(c6ccc[nH]6)C=CC4=C5)cc3)c(CCNC(C)=O)c2n1 [AzomelatoninICO9-2-NB590]	–	–	NanoBRET Fold Response (0.1μM tracer): 0.71; NanoBRET Fold Response (1μM tracer): 1.05
CN1CCN(C2=Nc3cc(Cl)ccc3N(CC(=O)NCCOCCOCCOCCOCCNC(=O)CCc3ccc4n3[B-](F)(F)[N+]3=C(c5ccc[nH]5)C=CC3=C4)c3ccccc32)CC1 [Clozapine-c-2-NB590]	–	–	NanoBRET Fold Response (OPRL1, 0.1μM tracer): 0.98; NanoBRET Fold Response (OPRL1, 1μM tracer): 0.99
COc1ccccc1N1CCN(CCCCN2C(=O)c3ccc(CNC(=O)CCOCCNC(=O)c4ccc(CNC(=O)CCc5ccc6n5[B-](F)(F)[N+]5=C(c7ccc[nH]7)C=CC5=C6)cc4)cc3C2=O)CC1 [NAN-190-3-NB590]	1.08	1.41	–
Cc1nc2n(c(=O)c1CCN1CCC(c3noc4cc(F)ccc34)CC1)CCCC2OC(=O)NCCOCCOCCOCCOCCNC(=O)CCc1ccc2n1[B-](F)(F)[N+]1=C(c3ccc[nH]3)C=CC1=C2 (stereo not shown) [Risperidone-2-NB590]	0.97	0.96	–
O=C(CCOCCOCCOCCOCCNC(=O)CCc1ccc2n1[B-](F)(F)[N+]1=C(c3ccc[nH]3)C=CC1=C2)NCCCN1CCN(C2=Nc3ccccc3Oc3ccc(Cl)cc32)CC1 [Loxapine-a-2-NB590]	1.00	0.89	–
COc1ccccc1N1CCN(CCCCN2C(=O)c3ccc(CNC(=O)CCOCCOCCOCCOCCNC(=O)CCc4ccc5n4[B-](F)(F)[N+]4=C(c6ccc[nH]6)C=CC4=C5)cc3C2=O)CC1 [NAN-190-2-NB590]	0.97	–	–
CC(C)N(CC[C@H](c1ccccc1)c1cc(CCNC(=O)CCOCCOCCOCCOCCNC(=O)CCc2ccc3n2[B-](F)(F)[N+]2=C(c4ccc[nH]4)C=CC2=C3)ccc1O)C(C)C [Tolterodine-2-NB590]	1.07	0.90	–
N#CN=C(NCCCOc1cccc(CN2CCCCC2)c1)NCCNC(=O)CCOCCOCCOCCOCCNC(=O)CCc1ccc2n1[B-](F)(F)[N+]1=C(c3ccc[nH]3)C=CC1=C2 [Aminopotentidine-2-NB590]	1.05	1.01	–
CCOC(=O)c1cc(C#N)c(N2CCC(C(=O)NS(=O)(=O)Cc3ccccc3/C=C/C(=O)NCCNC(=O)CCc3ccc4n3[B-](F)(F)[N+]3=C(c5ccc[nH]5)C=CC3=C4)CC2)nc1C [AZD1283-1-NB590]	–	–	NanoBRET Fold Response (OPRL1, 0.1μM): 0.98; NanoBRET Fold Response (OPRL1, 1μM): 1.15
CN(C)CCC=C1c2ccccc2CCc2ccc(C(=O)NCCNC(=O)CCOCCOCCOCCOCCNC(=O)CCc3ccc4n3[B-](F)(F)[N+]3=C(c5ccc[nH]5)C=CC3=C4)cc21 [Amitriptyline-b-2-NB590]	–	–	NanoBRET Fold Response (tracer at 0.1μM, listed as amitriptyline-b-2-NB590): 1.14; NanoBRET Fold Response (tracer at 1μM, listed as amitriptyline-b-2-NB590): 1.14
CN(C)CCC=C1c2ccccc2CCc2ccc(C(=O)NCCNC(=O)CCOCCOCCOCCOCCNC(=O)CCc3ccc4n3[B-](F)(F)[N+]3=C(c5ccc[nH]5)C=CC3=C4)cc21 [Amitriptyline-a-2-NB590]	–	–	NanoBRET Fold Response (tracer at 0.1μM): 1.01; NanoBRET Fold Response (tracer at 1μM): 0.95
O=C(CCc1ccc2n1[B-](F)(F)[N+]1=C(c3ccc[nH]3)C=CC1=C2)NCCOCCOCCNC(=O)OCCOCCN1CCN(C2=Nc3ccccc3Sc3ccccc32)CC1 [Quetiapine-a-2-NB590]	0.90	1.00	–
Cc1cc2c(s1)Nc1ccccc1N=C2N1CCN(CCCNC(=O)CCOCCOCCOCCOCCNC(=O)CCc2ccc3n2[B-](F)(F)[N+]2=C(c4ccc[nH]4)C=CC2=C3)CC1 [Olanzapine-a-2-NB590]	1.02	0.47	–
CN1CCN(C2=Nc3cc(Cl)ccc3Nc3ccc(CNC(=O)CCOCCOCCOCCOCCNC(=O)CCc4ccc5n4[B-](F)(F)[N+]4=C(c6ccc[nH]6)C=CC4=C5)cc32)CC1 [Clozapine-b-2-NB590]	–	–	NanoBRET Fold Response (OPRL1, 0.1μM tracer): 1.00; NanoBRET Fold Response (OPRL1, 1μM tracer): 1.01
COc1ccc2c(n1)c(CCNC(C)=O)cn2CCNC(=O)CCc1ccc2n1[B-](F)(F)[N+]1=C(c3ccc[nH]3)C=CC1=C2 [Azamelatonin-1-NB590]	–	–	NanoBRET Fold Response (0.1μM tracer): 1.14; NanoBRET Fold Response (1μM tracer): 1.14
CN(CCC=C1c2ccccc2CCc2ccccc21)C(=O)CCOCCOCCOCCOCCNC(=O)CCc1ccc2n1[B-](F)(F)[N+]1=C(c3ccc[nH]3)C=CC1=C2 [Amitriptyline-e-2-NB590]	–	–	NanoBRET Fold Response (tracer at 1μM): 1.10
O=C(CCc1ccc2n1[B-](F)(F)[N+]1=C(c3ccc[nH]3)C=CC1=C2)NCc1ccc(C(=O)NCCOCCOCCNCC(O)COc2cccc3ccccc23)cc1 (stereo not shown) [Propranolol-3-NB590]	–	–	NanoBRET Fold Response (OPRL1, 0.1μM): 0.96; NanoBRET Fold Response (OPRL1, 1μM): 1.01
O=C(CCOCCOCCOCCOCCNC(=O)CCc1ccc2n1[B-](F)(F)[N+]1=C(c3ccc[nH]3)C=CC1=C2)NCCCN1CCN(C2=Nc3cc(Cl)ccc3Nc3ccccc32)CC1 [Clozapine-a-2-NB590]	–	–	NanoBRET Fold Response (OPRL1, 0.1μM tracer): 0.99; NanoBRET Fold Response (OPRL1, 1μM tracer): 1.05
